# Laboratory results taken from patent US5693608A, “Method of administering a biologically active substance” (Bechgaard International Research and Development A/S, priority 1990, dated 1997).
# “Also recorded” adds a separate entry of the source.
# What was measured:
# rabbit nasal cavity = assay: Acute toxicological study, rabbit nasal cavity 10 minutes after intranasal application; type: in vivo; conditions: for Microscopic Observations (Left Cavity): Table 8, individual rabbit
# Method: This study was conducted in order to observe acute changes in the rabbit nasal cavity after a single dose of vehicle in each nasal cavity.
# 16 rabbits were randomized into 4 groups of 4 rabbits each. 3 groups received a single intranasal application of one of the test vehicles, 50 μl into each nasal cavity. Each rabbit received only one test compound. One group served as a control receiving the same volume of isotonic sodium chloride saline. 10 minutes after application the rabbits were sacrificed and bled. The right nasal cavity was then opened and evaluated macroscopically. The evaluator was blind as to the dosing scheme. The left nasal cavity was dissected and fixed in neutral buffered formalin for histological evaluation.
# rabbits = assay: Pharmacodynamic response, enhanced by GF (Example 3); conditions: intranasal 0.25 mg clonazepam in 100 μl
# Method: The pharmacodynamic response was tested in New Zealand White rabbits after application of 50 μl of 2.5 mg clonazepam/ml vehicle into each nostril while they were in sitting position. […] Clonazepam was dissolved by ultrasonification.
# [1] = Volume of aqueous solution needed to dissolve clinically relevant dose; type: physicochemical
# [2] = Plasma clonazepam after intranasal administration in vehicle B (Example 2); type: in vivo, New Zealand White rabbits
# Method: 50 μl of his preparation was administered into each nasal cavity of male New Zealand White rabbits, held in a supine position during and 1 minute after the application. An Eppendorph pipette was used for the application.
# [3] = intranasal, adults; cited from earlier work
# children = conditions: intranasal, 45 children; cited from earlier work
# [4] = nasal gel, rats; cited from earlier work
# blood glucose level [5] = assay: Blood glucose after intranasal glucagon in hypoglycaemic rabbits (Example 5); type: in vivo, New Zealand White rabbits
# Method: 4 mg human glucagon in 100 μl phosphate buffer (pH 4) containing 5% GF was applied into both nostrils (50 μl into each) of 5 sitting hypoglycaemic New Zealand White rabbits, weighing about 3 kg. The formulation was prepared by dissolving glucagon in a 7 mM phosphate buffer (pH 2.5), adjusting the pH to 4.0 with 0.1N sodium hydroxide and finally 5% glycofurolum 75 was added. The rabbits were made hypoglycaemic by subcutaneous injection of […] insulin one hour prior to the experiment. Blood samples were continuously withdrawn from the marginal ear vein for blood glucose determination.
# blood glucose level [6] = assay: Blood glucose after intranasal insulin (Example 4); type: in vivo, New Zealand White rabbits; conditions: rabbits
# Method: 0.33 mg zinc-free (monomeric) human insulin in 50 μl 12.5 mM phosphate buffer (pH 7.4) containing 5% glycofurol 75 was applied into one nostril of 5 sitting New Zealand White rabbits, weighing about 3 kg. Blood samples of 50 μl were withdrawn from the marginal ear vein after 0, 15, 30, 60 and 120 minutes, and blood glucose level was determined.
compound,measurement,setting,value
"CC(O)CO (stereo not shown) [Propylene glycol (PG), propylene glycol]",Microscopic Observations (Left Cavity),rabbit nasal cavity; Level 1,Edema and congestion
same,Microscopic Observations (Left Cavity),rabbit nasal cavity; Level 2,Congestion
same,Microscopic Observations (Left Cavity),rabbit nasal cavity; Level 3,Lymphoid aggregates; also recorded: Dilatation of venules
same,Microscopic Observations (Left Cavity),rabbit nasal cavity; Level 4,Area of chronic inflammation
same,Microscopic Results (Left side),"rabbit nasal cavity; Table 9 summary, 10 minutes after application, per animal",Focal haemorrhage
O=C1CN=C(c2ccccc2Cl)c2cc([N+](=O)[O-])ccc2N1 [clonazepam],time to pharmacodynamic response,rabbits,less than 2 minutes
same,volume of aqueous solution to dissolve clinically relevant dose,[1],> 10 mL
same,plasma concentration versus i.v. injection (in words),"[2]; 0.5 mg, at about 2 minutes","about the same or even higher, at about 2 minutes, than for an i.v. injection"
same,"plasma concentration after 2 1/2 minutes, % of i.v. (CpL(21/2 min))",[2]; FIG. 1,about 100%
same,Tmax,"[2]; rabbit, plasma, 0.5 mg, FIG. 1, read-out: peak clonazepam plasma concentration (tmax)",2 to 3 min
CN1C(=O)CN=C(c2ccccc2)c2cc(Cl)ccc21 [diazepam],peak concentration with reference to i.v. administration,[3],about 27%
O=C1Nc2ccc(Cl)cc2C(c2ccccc2Cl)=NC1O (stereo not shown) [lorazepam],time to peak concentration,[3],2.3 h
Cc1ncc2n1-c1ccc(Cl)cc1C(c1ccccc1F)=NC2 [midazolam],adverse reaction (in words),children,coughing and sneezing with expulsion of part of the dose
COC(=O)C1=C(C)NC(C)=C(C(=O)OC)C1c1ccccc1[N+](=O)[O-] [nifedipine],plasma peak concentration compared with intravenous administration,[4],≤ 10%
glucagon: human glucagon in phosphate buffer (pH 4) containing 5% GF,"pronounced biological response (blood glucose), time after application",blood glucose level [5],15-30 minutes
insulin: zinc-free (monomeric) human insulin in phosphate buffer (pH 7.4) containing 5% glycofurol 75,"pronounced biological response (blood glucose), time after application",blood glucose level [6],15-30 minutes
